PMC5501184 (Journal of medicinal chemistry, 2017)
Where two headings read alike, the source gives them in different places.

Assays:
hDAT [1] = biological target: T1, hDAT (Homo sapiens, UniProt Q01959); assay: PDSP screen: [^3H]24 binding at hDAT; conditions: for inhibition at 10 µM: read-out: hDAT Binding Inhibition, % of control; for remaining activity at 10 µM: read-out: hDAT Binding Enhancement, % of control
[2] = test system: mouse chronic constriction injury (CCI) model of neuropathic pain; assay: mouse chronic constriction injury; format: in vivo; conditions: 3 μmol/kg, p.o.; 7 d post-injury
hDAT [3] = biological target: T1, hDAT; assay: [^3H]26 binding to HEK-hDAT membranes
hNET = hNET (Homo sapiens, UniProt P23975); assay: [^125I]23 binding to HEK-hNET membranes; conditions: maximal enhancement
hDAT [4] = biological target: T1, hDAT; assay: [^125I]23 binding to HEK-hDAT membranes; conditions: maximal enhancement
mA3AR = biological target: T2, mA3AR (Mus musculus, UniProt Q61618); assay: A3AR radioligand; format: binding; conditions: for A3AR Binding % at 10 μM (m): mouse, % inhibition at 10 μM, radioligand [^125I]25
T2 sequence (Q61618 1-319): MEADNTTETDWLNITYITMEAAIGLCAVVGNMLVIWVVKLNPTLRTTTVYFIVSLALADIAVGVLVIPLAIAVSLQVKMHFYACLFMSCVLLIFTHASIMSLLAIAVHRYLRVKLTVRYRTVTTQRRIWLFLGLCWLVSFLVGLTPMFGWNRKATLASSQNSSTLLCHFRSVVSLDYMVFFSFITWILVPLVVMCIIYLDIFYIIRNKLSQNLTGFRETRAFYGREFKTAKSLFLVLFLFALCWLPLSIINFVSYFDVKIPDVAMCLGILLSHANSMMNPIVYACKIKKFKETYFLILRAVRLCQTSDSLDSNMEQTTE

hDAT [5] = biological target: T1, hDAT; conditions: 10 μM; [^3H]24 binding, PDSP; ref Janowsky et al.[3]; cited from earlier work

T1 sequence (Q01959 whole entry): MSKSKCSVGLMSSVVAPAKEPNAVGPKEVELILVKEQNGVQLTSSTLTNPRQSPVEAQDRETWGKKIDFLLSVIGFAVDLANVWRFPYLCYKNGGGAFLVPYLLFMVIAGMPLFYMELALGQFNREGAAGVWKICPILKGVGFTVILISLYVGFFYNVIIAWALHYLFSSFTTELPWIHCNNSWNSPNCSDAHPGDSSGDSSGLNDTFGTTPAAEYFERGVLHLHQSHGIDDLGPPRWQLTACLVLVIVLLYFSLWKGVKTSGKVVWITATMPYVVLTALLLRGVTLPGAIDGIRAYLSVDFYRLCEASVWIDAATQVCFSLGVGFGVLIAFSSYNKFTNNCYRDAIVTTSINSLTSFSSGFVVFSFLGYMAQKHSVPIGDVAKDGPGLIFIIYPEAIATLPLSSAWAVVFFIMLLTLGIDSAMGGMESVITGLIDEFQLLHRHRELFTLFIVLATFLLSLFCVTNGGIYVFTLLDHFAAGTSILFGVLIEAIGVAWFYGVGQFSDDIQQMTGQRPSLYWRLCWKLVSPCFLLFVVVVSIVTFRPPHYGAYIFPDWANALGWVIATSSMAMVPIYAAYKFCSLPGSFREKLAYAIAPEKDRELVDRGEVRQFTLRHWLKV
hNET, sequence (P23975 whole entry): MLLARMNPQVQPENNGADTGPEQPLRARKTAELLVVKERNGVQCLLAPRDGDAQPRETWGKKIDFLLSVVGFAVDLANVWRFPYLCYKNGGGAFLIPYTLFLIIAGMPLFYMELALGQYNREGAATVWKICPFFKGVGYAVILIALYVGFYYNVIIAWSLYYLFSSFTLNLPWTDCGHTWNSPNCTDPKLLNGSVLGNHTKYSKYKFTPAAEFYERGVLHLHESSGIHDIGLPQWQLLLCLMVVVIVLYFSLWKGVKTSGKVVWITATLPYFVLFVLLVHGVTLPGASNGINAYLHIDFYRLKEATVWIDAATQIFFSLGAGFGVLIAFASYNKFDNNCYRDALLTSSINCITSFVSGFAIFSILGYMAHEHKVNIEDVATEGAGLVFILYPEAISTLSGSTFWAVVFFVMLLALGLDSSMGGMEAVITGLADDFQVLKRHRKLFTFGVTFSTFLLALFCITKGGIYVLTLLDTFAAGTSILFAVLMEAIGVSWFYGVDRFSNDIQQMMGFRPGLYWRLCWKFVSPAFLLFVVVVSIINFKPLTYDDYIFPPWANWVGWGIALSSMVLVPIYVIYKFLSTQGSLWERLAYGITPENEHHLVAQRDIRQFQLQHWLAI

Structure (SMILES) | inhibition at 10 µM (hDAT [1]) [%] | other results
CCNc1cc(C#Cc2ccc(Cl)s2)nc2c1ncn2[C@H]1[C@H](O)[C@H](O)[C@]2(C(=O)NC)C[C@H]12 [5b] | -20 to 20 | –
CNc1nc(C#Cc2ccc(Br)s2)nc2c1ncn2[C@H]1[C@H](O)[C@H](O)[C@]2(C(=O)OC)C[C@H]12 [compound 11, Methyl (1S,2R,3S,4R,5S)-4-(2-((5-bromothiophen-2-yl)ethynyl)-6-(methylamino)-9H-purin-9-yl)-2,3-dihydroxybicyclo[3.1.0]hexane-1-carboxylate] | < -20 | –
CNC(=O)[C@H]1O[C@@H](n2cnc3c(NC)nc(C#Cc4ccc(Cl)s4)nc32)[C@H](O)[C@@H]1O [compound 27, (2S,3S,4R,5R)-5-(2-((5-Chlorothiophen-2-yl)ethynyl)-6-(methylamino)-9H-purin-9-yl)-3,4-dihydroxy-N-methyltetrahydrofuran-2-carboxamide] | < -20 | efficacy in increasing paw withdrawal threshold (PWT) [2]: fully efficacious
CNc1nc(C#Cc2ccc(Cl)s2)nc2c1ncn2[C@@H]1O[C@H](C(=O)OC)[C@@H](O)[C@H]1O [compound 29, Methyl (2S,3S,4R,5R)-5-(2-((5-Chlorothiophen-2-yl)ethynyl)-6-(methylamino)-9H-purin-9-yl)-3,4-dihydroxytetrahydrofuran-2-carboxylate] | < -20 | fold higher EC50 than 9 for enhancement of [^3H]26 binding at hDAT (hDAT [3]): 7 fold
CNc1nc(C#Cc2ccc(Cl)s2)nc2c1ncn2[C@H]1[C@H](O)[C@H](O)[C@]2(C(=O)OC)C[C@H]12 [compound 9, Methyl (1S,2R,3S,4R,5S)-4-(2-((5-chlorothiophen-2-yl)ethynyl)-6-(methylamino)-9H-purin-9-yl)-2,3-dihydroxybicyclo[3.1.0]hexane-1-carboxylate] | < -20 | remaining activity at 10 µM (hDAT [1]): 391%; hNET [^125I]23 binding, % control binding (hNET): ~370%; hDAT [^125I]23 binding, % control binding (hDAT [4]): ~450%; Ki (mA3AR): > 10 µM; A3AR Binding % at 10 μM (m) (mA3AR): < 50%
CNc1nc(C#Cc2ccc(Cl)s2)nc2c1ncn2[C@H]1[C@H](O)[C@H](O)[C@]2(C(=O)OC(C)C)C[C@H]12 [compound 15, Isopropyl (1S,2R,3S,4R,5S)-4-(2-((5-chlorothiophen-2-yl)ethynyl)-6-(methylamino)-9H-purin-9-yl)-2,3-dihydroxybicyclo[3.1.0]hexane-1-carboxylate] | – | hDAT Binding Inhibition, % of control (hDAT [1]; 10 μM, [^3H]24 binding, PDSP): slightly inhibited binding
CCOC(=O)[C@@]12C[C@@H]1[C@@H](n1cnc3c(NC)nc(C#Cc4ccc(Br)s4)nc31)[C@H](O)[C@@H]2O [compound 12, Ethyl (1S,2R,3S,4R,5S)-4-(2-((5-bromothiophen-2-yl)ethynyl)-6-(methylamino)-9H-purin-9-yl)-2,3-dihydroxybicyclo[3.1.0]hexane-1-carboxylate] | < -20 | –
CNc1nc(C#Cc2ccc(Cl)s2)nc2c1ncn2[C@H]1[C@H](O)[C@H](O)[C@]2(C(=O)O)C[C@H]12 [compound 22, (1S,2R,3S,4R,5S)-4-(2-((5-Chlorothiophen-2-yl)ethynyl)-6-(methylamino)-9H-purin-9-yl)-2,3-dihydroxybicyclo[3.1.0]hexane-1-carboxylic acid] | < -20 | –
CNC(=O)[C@@]12C[C@@H]1[C@@H](n1cnc3c(NC)nc(C#Cc4ccc(Br)s4)nc31)[C@H](O)[C@@H]2O [compound 2] | – | hDAT Binding Inhibition, % of control (hDAT [5]): NE (no effect)
CNc1nc(C#Cc2ccc(Cl)s2)nc2c1ncn2[C@H]1[C@H](O)[C@H](O)[C@]2(C(=O)OCCC(C)C)C[C@H]12 [compound 17, Isopentyl (1S,2R,3S,4R,5S)-4-(2-((5-chlorothiophen-2-yl)ethynyl)-6-(methylamino)-9H-purin-9-yl)-2,3-dihydroxybicyclo[3.1.0]hexane-1-carboxylate] | < -20 | –
CNC(=O)[C@@]12C[C@@H]1[C@@H](n1cnc3c(NC)nc(C#Cc4ccc(F)c(F)c4)nc31)[C@H](O)[C@@H]2O [compound 3] | – | hDAT Binding Inhibition, % of control (hDAT [5]): NE (no effect)
CCCOC(=O)[C@@]12C[C@@H]1[C@@H](n1cnc3c(NC)nc(C#Cc4ccc(Cl)s4)nc31)[C@H](O)[C@@H]2O [compound 14, n-Propyl (1S,2R,3S,4R,5S)-4-(2-((5-chlorothiophen-2-yl)ethynyl)-6-(methylamino)-9H-purin-9-yl)-2,3-dihydroxybicyclo[3.1.0]hexane-1-carboxylate] | < -20 | –
CCCCOC(=O)[C@@]12C[C@@H]1[C@@H](n1cnc3c(NC)nc(C#Cc4ccc(Cl)s4)nc31)[C@H](O)[C@@H]2O [compound 16, Butyl (1S,2R,3S,4R,5S)-4-(2-((5-chlorothiophen-2-yl)ethynyl)-6-(methylamino)-9H-purin-9-yl)-2,3-dihydroxybicyclo[3.1.0]hexane-1-carboxylate] | < -20 | –
CNc1nc(C#Cc2ccc(Cl)s2)nc2c1ncn2[C@H]1[C@H](O)[C@H](O)[C@]2(C(=O)NCCN)C[C@H]12 [compound 8, (1S,2R,3S,4R,5S)-N-(2-Aminoethyl)-4-(2-((5-chlorothiophen-2-yl)ethynyl)-6-(methylamino)-9H-purin-9-yl)-2,3-dihydroxybicyclo[3.1.0]hexane-1-carboxamide] | < -20 | remaining activity at 10 µM (hDAT [1]): 133%
CNc1nc(C#Cc2ccc(Cl)s2)nc2c1ncn2[C@H]1[C@H](O)[C@H](O)[C@]2(C(=O)OCCc3ccccc3)C[C@H]12 [compound 20, 2-Phenylethyl (1S,2R,3S,4R,5S)-4-(2-((5-chlorothiophen-2-yl)ethynyl)-6-(methylamino)-9H-purin-9-yl)-2,3-dihydroxybicyclo[3.1.0]hexane-1-carboxylate] | -20 to 20 | –
CCCNc1nc(C#Cc2ccc(Cl)s2)nc2c1ncn2[C@@H]1O[C@H](C(=O)NC)[C@@H](O)[C@H]1O [compound 28, (2S,3S,4R,5R)-5-(2-((5-Chlorothiophen-2-yl)ethynyl)-6-(n-propylamino)-9H-purin-9-yl)-3,4-dihydroxy-N-methyltetrahydrofuran-2-carboxamide] | < -20 | efficacy in increasing paw withdrawal threshold (PWT) [2]: fully efficacious
CNc1nc(C#Cc2ccc(Cl)s2)nc2c1ncn2[C@H]1[C@H](O)[C@H](O)[C@]2(C(=O)OCCC3CCCCC3)C[C@H]12 [compound 18, 2-Cyclohexylethyl (1S,2R,3S,4R,5S)-4-(2-((5-chlorothiophen-2-yl)ethynyl)-6-(methylamino)-9H-purin-9-yl)-2,3-dihydroxybicyclo[3.1.0]hexane-1-carboxylate] | -20 to 20 | –
CNc1nc(C#Cc2ccc(Cl)s2)nc2c1ncn2[C@H]1[C@H](O)[C@H](O)[C@]2(C(=O)OCCCc3ccccc3)C[C@H]12 [compound 21, 3-Phenylpropyl (1S,2R,3S,4R,5S)-4-(2-((5-chlorothiophen-2-yl)ethynyl)-6-(methylamino)-9H-purin-9-yl)-2,3-dihydroxybicyclo[3.1.0]hexane-1-carboxylate] | -20 to 20 | –
CCOC(=O)[C@@]12C[C@@H]1[C@@H](n1cnc3c(NC)nc(C#Cc4ccc(Cl)s4)cc31)[C@H](O)[C@@H]2O [compound 13, Ethyl (1S,2R,3S,4R,5S)-4-(6-((5-chlorothiophen-2-yl)ethynyl)-4-(methylamino)-1H-imidazo[4,5-c]pyridin-1-yl)-2,3-dihydroxybicyclo[3.1.0]hexane-1-carboxylate] | < -20 | –
CCCNc1nc(C#Cc2ccc(Cl)s2)nc2c1ncn2[C@H]1[C@H](O)[C@H](O)[C@]2(C(=O)NC)C[C@H]12 [compound 7] | – | fold greater mA3AR affinity compared to ribose 5′-amide 28 (mA3AR): 88 fold; hDAT Binding Inhibition, % of control (hDAT [5]): NE (no effect)
CCOC(=O)[C@@]12C[C@@H]1[C@@H](n1cnc3c(NC)nc(C#Cc4ccc(Cl)s4)nc31)[C@H](O)[C@@H]2O [compound 10, Ethyl (1S,2R,3S,4R,5S)-4-(2-((5-chlorothiophen-2-yl)ethynyl)-6-(methylamino)-9H-purin-9-yl)-2,3-dihydroxybicyclo[3.1.0]hexane-1-carboxylate] | < -20 | hNET [^125I]23 binding, % control binding (hNET): ~370%; A3AR Binding % at 10 μM (m) (mA3AR): < 50%
CNc1nc(C#Cc2ccc(Cl)s2)nc2c1ncn2[C@H]1[C@H](O)[C@H](O)[C@]2(C(=O)OCc3ccccc3)C[C@H]12 [compound 19, Benzyl (1S,2R,3S,4R,5S)-4-(2-((5-chlorothiophen-2-yl)ethynyl)-6-(methylamino)-9H-purin-9-yl)-2,3-dihydroxybicyclo[3.1.0]hexane-1-carboxylate] | -20 to 20 | –
CNC(=O)[C@@]12C[C@@H]1[C@@H](n1cnc3c(NC)nc(C#Cc4ccc(Cl)s4)cc31)[C@H](O)[C@@H]2O [compound 6, (1S,2R,3S,4R,5S)-4-(6-((5-Chlorothiophen-2-yl)ethynyl)-4-(methylamino)-1H-imidazo[4,5-c]pyridin-1-yl)-2,3-dihydroxy-N-methylbicyclo[3.1.0]hexane-1-carboxamide] | < -20 | A3AR Binding % at 10 μM (m) (mA3AR): < 50%
